{"source": "paper PMC5564600", "about": "(Oncotarget, 2017)", "assay_in_all_cases": "biochemical", "type_in_all_cases": "binding", "key": {"[1]": {"molecular_target": "T1, panel of 442 kinases (Homo sapiens, UniProt Q9NYL2)", "T1 construct": "purchased Ambit Biosciences (scanMAXX KINOMEscan)", "T1 sequence (Q9NYL2 whole entry)": "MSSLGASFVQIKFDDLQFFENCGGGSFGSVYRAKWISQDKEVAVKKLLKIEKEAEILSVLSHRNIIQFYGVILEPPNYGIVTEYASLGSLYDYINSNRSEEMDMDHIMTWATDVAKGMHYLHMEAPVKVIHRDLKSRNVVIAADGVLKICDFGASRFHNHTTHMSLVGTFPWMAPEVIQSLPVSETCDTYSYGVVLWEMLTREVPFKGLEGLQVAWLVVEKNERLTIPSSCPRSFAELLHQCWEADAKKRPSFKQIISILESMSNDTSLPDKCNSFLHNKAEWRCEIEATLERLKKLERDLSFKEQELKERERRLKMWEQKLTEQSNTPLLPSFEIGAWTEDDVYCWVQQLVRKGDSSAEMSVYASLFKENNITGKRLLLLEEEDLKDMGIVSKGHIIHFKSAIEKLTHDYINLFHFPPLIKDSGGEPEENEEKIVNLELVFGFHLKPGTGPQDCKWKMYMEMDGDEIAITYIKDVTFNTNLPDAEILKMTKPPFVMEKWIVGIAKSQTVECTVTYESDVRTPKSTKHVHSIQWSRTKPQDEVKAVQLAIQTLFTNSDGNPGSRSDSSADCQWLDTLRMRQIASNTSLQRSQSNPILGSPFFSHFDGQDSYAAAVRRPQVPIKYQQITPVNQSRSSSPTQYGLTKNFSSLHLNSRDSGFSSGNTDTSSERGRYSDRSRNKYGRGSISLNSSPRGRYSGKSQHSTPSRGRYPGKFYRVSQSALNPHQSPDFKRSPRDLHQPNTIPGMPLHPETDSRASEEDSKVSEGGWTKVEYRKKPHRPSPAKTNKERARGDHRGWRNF", "details": "kinase ZAK; for remaining activity at 1 µM: read-out: ZAK (% of control at 1 µM)"}, "[2]": {"molecular_target": "T2, panel of 442 kinases (Homo sapiens, UniProt Q99683)", "T2 construct": "purchased Ambit Biosciences (scanMAXX KINOMEscan)", "T2 sequence (Q99683 1-1374)": "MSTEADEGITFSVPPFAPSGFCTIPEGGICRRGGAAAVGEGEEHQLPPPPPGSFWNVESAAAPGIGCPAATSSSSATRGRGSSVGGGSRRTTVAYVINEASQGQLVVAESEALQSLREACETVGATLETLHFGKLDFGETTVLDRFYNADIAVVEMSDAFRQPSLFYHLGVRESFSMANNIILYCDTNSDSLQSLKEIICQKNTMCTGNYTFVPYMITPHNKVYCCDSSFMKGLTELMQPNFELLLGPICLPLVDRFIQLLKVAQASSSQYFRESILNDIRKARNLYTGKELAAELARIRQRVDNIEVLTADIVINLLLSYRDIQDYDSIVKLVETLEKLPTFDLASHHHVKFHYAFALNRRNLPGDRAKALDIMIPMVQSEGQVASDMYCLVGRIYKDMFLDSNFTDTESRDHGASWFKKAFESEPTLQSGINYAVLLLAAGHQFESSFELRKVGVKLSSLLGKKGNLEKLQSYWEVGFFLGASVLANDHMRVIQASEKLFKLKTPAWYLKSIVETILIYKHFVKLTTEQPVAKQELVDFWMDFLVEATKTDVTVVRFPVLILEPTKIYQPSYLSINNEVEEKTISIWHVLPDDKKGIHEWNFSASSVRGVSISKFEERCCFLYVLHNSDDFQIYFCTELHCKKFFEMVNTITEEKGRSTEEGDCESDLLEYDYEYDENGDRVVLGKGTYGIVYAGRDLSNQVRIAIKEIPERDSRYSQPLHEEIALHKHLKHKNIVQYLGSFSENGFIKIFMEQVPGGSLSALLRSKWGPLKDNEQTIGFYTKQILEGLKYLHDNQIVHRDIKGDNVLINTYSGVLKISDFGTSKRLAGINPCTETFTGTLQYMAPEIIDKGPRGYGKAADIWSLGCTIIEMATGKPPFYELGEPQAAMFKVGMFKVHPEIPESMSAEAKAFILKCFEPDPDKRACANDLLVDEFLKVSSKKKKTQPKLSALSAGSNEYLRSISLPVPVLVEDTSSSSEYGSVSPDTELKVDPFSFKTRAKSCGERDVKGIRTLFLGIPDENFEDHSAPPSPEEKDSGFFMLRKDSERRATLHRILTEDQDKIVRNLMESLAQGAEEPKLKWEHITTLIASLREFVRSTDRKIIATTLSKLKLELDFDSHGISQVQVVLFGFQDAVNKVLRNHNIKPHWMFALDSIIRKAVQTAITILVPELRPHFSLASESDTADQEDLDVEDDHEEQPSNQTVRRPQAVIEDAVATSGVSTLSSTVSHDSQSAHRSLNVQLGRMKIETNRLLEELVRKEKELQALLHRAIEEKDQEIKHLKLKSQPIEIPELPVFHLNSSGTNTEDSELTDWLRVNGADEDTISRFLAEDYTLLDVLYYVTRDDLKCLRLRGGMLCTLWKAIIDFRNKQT", "details": "ASK1; for remaining activity at 1 µM: read-out: % of control at 1 µM"}, "[3]": {"molecular_target": "T3, panel of 442 kinases (Homo sapiens, UniProt P31751)", "T3 construct": "purchased Ambit Biosciences (scanMAXX KINOMEscan)", "T3 sequence (P31751 whole entry)": "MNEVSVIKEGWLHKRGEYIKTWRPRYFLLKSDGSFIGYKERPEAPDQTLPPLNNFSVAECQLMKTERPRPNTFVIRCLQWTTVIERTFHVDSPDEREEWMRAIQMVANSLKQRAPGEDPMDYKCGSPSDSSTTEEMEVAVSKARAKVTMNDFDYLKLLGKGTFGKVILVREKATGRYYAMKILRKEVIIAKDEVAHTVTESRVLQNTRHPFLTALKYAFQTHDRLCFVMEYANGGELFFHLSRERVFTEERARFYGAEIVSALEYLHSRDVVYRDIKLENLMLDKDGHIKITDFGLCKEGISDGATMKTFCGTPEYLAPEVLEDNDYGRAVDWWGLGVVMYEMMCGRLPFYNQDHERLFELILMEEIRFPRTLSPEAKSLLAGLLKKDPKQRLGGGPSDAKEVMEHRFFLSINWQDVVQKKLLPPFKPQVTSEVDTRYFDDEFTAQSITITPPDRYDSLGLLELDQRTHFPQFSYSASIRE", "details": "AKT2; for remaining activity at 1 µM: read-out: % of control at 1 µM"}, "[4]": {"molecular_target": "T4, panel of 442 kinases (Homo sapiens, UniProt P54762)", "T4 construct": "purchased Ambit Biosciences (scanMAXX KINOMEscan)", "T4 sequence (P54762 18-984)": "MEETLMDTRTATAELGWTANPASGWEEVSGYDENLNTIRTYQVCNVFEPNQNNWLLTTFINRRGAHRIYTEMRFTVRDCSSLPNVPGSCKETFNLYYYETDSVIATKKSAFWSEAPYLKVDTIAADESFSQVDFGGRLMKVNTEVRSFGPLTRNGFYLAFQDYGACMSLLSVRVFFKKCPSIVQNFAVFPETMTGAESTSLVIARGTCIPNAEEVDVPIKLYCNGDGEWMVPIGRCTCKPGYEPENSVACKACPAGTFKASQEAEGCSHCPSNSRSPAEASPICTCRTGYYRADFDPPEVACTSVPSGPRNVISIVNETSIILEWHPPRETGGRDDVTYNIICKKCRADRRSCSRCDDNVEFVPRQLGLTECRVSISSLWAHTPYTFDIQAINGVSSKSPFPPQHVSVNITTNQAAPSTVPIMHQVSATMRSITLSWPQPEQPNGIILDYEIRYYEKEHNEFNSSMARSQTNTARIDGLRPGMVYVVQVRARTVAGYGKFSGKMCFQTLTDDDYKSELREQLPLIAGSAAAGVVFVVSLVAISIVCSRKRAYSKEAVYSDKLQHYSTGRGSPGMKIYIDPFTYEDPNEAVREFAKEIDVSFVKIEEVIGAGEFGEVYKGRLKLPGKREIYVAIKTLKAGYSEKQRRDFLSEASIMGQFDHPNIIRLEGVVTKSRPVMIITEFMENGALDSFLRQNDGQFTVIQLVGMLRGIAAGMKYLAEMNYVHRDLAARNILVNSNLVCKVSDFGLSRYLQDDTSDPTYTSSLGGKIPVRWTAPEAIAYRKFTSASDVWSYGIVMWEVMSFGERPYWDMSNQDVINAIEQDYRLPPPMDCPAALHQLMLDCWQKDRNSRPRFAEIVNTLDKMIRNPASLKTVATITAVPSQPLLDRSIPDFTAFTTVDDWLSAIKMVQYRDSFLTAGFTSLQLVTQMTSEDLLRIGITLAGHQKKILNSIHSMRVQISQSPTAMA", "details": "EPHB1; for remaining activity at 1 µM: read-out: % of control at 1 µM"}, "[5]": {"molecular_target": "T5, panel of 442 kinases (Homo sapiens, UniProt Q99755)", "T5 construct": "purchased Ambit Biosciences (scanMAXX KINOMEscan)", "T5 sequence (Q99755 whole entry)": "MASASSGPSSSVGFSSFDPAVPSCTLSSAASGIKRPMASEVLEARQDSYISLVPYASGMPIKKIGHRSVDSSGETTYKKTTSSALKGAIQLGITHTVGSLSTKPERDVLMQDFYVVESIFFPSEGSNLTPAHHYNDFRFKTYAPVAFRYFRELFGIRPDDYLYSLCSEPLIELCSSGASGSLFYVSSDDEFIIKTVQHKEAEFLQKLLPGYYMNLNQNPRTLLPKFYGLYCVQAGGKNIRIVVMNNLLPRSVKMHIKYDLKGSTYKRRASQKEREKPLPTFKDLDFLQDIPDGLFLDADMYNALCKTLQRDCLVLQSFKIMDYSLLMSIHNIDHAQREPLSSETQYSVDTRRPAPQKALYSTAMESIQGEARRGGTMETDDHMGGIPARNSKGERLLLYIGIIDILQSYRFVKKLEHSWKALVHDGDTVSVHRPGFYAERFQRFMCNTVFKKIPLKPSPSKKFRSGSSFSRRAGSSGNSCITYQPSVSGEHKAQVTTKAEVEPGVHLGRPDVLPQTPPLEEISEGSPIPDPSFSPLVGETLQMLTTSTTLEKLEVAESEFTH", "details": "kinase PIP5K1A; for remaining activity at 1 µM: read-out: % of control at 1 µM"}, "[6]": {"details": "10 µM, read-out: % of control at 10 µM"}}}
{"smiles": "Nc1cc(C(F)(F)F)c(-c2cc(N3CCOCC3)nc(N3CCOCC3)n2)cn1", "note": "[Buparlisib]", "values": [{"measurement": "remaining activity at 1 µM", "setting": "[1]", "result": 85, "unit": "%"}, {"measurement": "remaining activity at 10 µM", "setting": "[1]; 10 µM, read-out: ZAK (% of control at 10 µM)", "result": 90, "unit": "%"}, {"measurement": "remaining activity at 1 µM", "setting": "[2]", "result": 87, "unit": "%"}, {"measurement": "remaining activity at 10 µM", "setting": "[2]; [6]", "result": 94, "unit": "%"}, {"measurement": "remaining activity at 1 µM", "setting": "[3]", "result": 100, "unit": "%"}, {"measurement": "remaining activity at 10 µM", "setting": "[3]; [6]", "result": 100, "unit": "%"}, {"measurement": "remaining activity at 1 µM", "setting": "[4]", "result": 88, "unit": "%"}, {"measurement": "remaining activity at 10 µM", "setting": "[4]; [6]", "result": 100, "unit": "%"}, {"measurement": "remaining activity at 1 µM", "setting": "[5]", "result": 100, "unit": "%"}, {"measurement": "remaining activity at 10 µM", "setting": "[5]; [6]", "result": 100, "unit": "%"}]}
{"smiles": "Cn1c(=O)n(-c2ccc(C(C)(C)C#N)cc2)c2c3cc(-c4cnc5ccccc5c4)ccc3ncc21", "note": "[Dactolisib, 2-methyl-2-[4-(3-methyl-2-oxo-8-quinolin-3-yl-2,3-dihydroimidazo[4,5-c]quinolin-1-yl)-phenyl] propionitrile]", "values": [{"measurement": "remaining activity at 1 µM", "setting": "[1]", "result": 55, "unit": "%"}, {"measurement": "remaining activity at 1 µM", "setting": "[2]", "result": 100, "unit": "%"}, {"measurement": "remaining activity at 1 µM", "setting": "[3]", "result": 78, "unit": "%"}, {"measurement": "remaining activity at 1 µM", "setting": "[4]", "result": 100, "unit": "%"}, {"measurement": "remaining activity at 1 µM", "setting": "[5]", "result": 59, "unit": "%"}]}
{"smiles": "COc1ncc(-c2ccc3nccc(-c4ccnnc4)c3c2)cc1NS(=O)(=O)c1ccc(F)cc1F", "note": "[Omipalisib]", "values": [{"measurement": "remaining activity at 1 µM", "setting": "[1]", "result": 81, "unit": "%"}, {"measurement": "remaining activity at 1 µM", "setting": "[2]", "result": 100, "unit": "%"}, {"measurement": "remaining activity at 1 µM", "setting": "[3]", "result": 69, "unit": "%"}, {"measurement": "remaining activity at 1 µM", "setting": "[4]", "result": 100, "unit": "%"}, {"measurement": "remaining activity at 1 µM", "setting": "[5]", "result": 100, "unit": "%"}]}
{"smiles": "FC(F)c1nc2ccccc2n1-c1nc(N2CCOCC2)nc(N2CCOCC2)n1", "note": "[ZSTK474, 2-(difluoromethyl)-1-[4,6-di(4-morpholinyl)-1,3,5-triazin-2-yl]-1H-benzimidazole]", "values": [{"measurement": "remaining activity at 1 µM", "setting": "[1]", "result": 92, "unit": "%"}, {"measurement": "remaining activity at 1 µM", "setting": "[2]", "result": 100, "unit": "%"}, {"measurement": "remaining activity at 1 µM", "setting": "[3]", "result": 80, "unit": "%"}, {"measurement": "remaining activity at 1 µM", "setting": "[4]", "result": 99, "unit": "%"}, {"measurement": "remaining activity at 1 µM", "setting": "[5]", "result": 100, "unit": "%"}]}
